In patent US20080182859A1 (Curis, Inc., priority 2006, published 2008):
Counter-ions that a name gives are not always drawn.

Tests used:
Format in all cases: cell-based
[1] = system: sonic hedgehog pathway; assay: Hedgehog pathway Gli-luciferase reporter assay, TM3 cells; details: TM3 mouse Leydig cells
Excerpt: (§1) Mouse (TM3: mouse Leydig cells; S12: mouse embryonic mesenchymal cells) and human (Daoy: human medulloblastoma cell; HepM: human embryonic palatal mesenchymal cell) cell lines are used to screen small molecules for their ability to modulate the activity of the sonic hedgehog pathway (Table 1, Table 2, and Table 3). Stable hedgehog pathway reporter cell lines are established by specific antibiotic selection following transfection of a reporter plasmid containing a luciferase gene located directly downstream from the gli promoter. Consequently, any observable changes in cellular luciferase activity may be attributed to changes in sonic hedgehog pathway activity in mouse and human cells, respectively, since gli is the major by-product of this pathway. To calculate activity, we generate an eleven point dose curve for each compound using 1:3 dilutions in 96 well assay plates. Each plate tested also contains low and high control to establish maximal pathway activation so to establish/compare a percentage activation of each tested compound (AMAX) on respective plates. Also we calculate EC50 values, or a concentration where the pathway will be exactly 50% activated, for each tested compound to determine potency. In these cell lines, compounds that register >20% AMAX values are considered active.
(§2) Stable hedgehog pathway reporter cell lines are established following specific antibiotic selection following transfection of a reporter plasmid In short, typically cells are plated in MicroTiter-plates at 10,000-20,000 cells per well, in growth media (containing 10%-20% FBS). After 48-72 hrs (HGL and DGL respectively) the media in the assay plates is switched to low-serum containing media (0.5% FBS). At that time compounds are added (at 1-5 μM) to the assay plates, in the presence or absence of hedgehog protein (octyl-modified version; 1-5 ng/ml). After another 24 hrs of incubation, the media from the assay plates is discarded and replaced with luciferase assay-mix. Subsequently, plates are incubated at RT for ˜15-30 mins and then read in a luminometer. [note: addition of the Hedgehog protein, although not critical, will sensitize the assay allowing the identification of weak actives].

[2] = system: sonic hedgehog pathway; assay: Human hedgehog reporter assay HEPM-GliLuc (HGL); details: HepM human embryonic palatal mesenchymal cells, Gli-luciferase reporter
Excerpt: as §1, §2

[3] = system: sonic hedgehog pathway; assay: Human hedgehog reporter assay Daoy-GliLuc (DGL); details: Daoy human medulloblastoma cells, Gli-luciferase reporter; read-out: Daoy Avg. EC50
Excerpt: as §1, §2

Row | EC50 [1] [nM] | EC50 [3] [nM] | SMILES | EC50 [2] [nM]
1 | 50 to 250 | < 50 | CN[C@H]1CC[C@@H](N(Cc2cc(-c3cnccn3)ccc2OC)C(=O)c2sc3ccccc3c2Cl)CC1 [330 (R22)] | 50 to 250
2 | 50 to 250 | < 50 | CN[C@H]1CC[C@@H](N(Cc2cc(-c3cncnc3)ccc2OC)C(=O)c2sc3ccccc3c2Cl)CC1 [324 (R20)] | 50 to 250
3 | < 50 | < 50 | CN[C@H]1CC[C@@H](N(Cc2cc(-c3cnccn3)ccc2OC)C(=O)c2sc3c(F)ccc(F)c3c2Cl)CC1 [344 (R14)] | < 50
4 | < 50 | 50 to 250 | CN[C@H]1CC[C@H](N(Cc2cc(-c3ccc(C(C)=O)cc3)ccc2F)C(=O)c2sc3ccccc3c2Cl)CC1 [Compound 419, 3-Chloro-benzo[b]thiophene-2-carboxylic acid (4′-acetyl-4-fluoro-biphenyl-3-ylmethyl)-(4-methylamino-cyclohexyl)-amide trifluoroacetate] | 250 to 1000
5 | < 50 | < 50 | CCOc1ccc(-c2ccc(C(=O)C(F)(F)F)cc2)cc1CN(C(=O)c1sc2ccccc2c1Cl)[C@H]1CC[C@@H](NC)CC1 [Compound 310, 3-Chloro-benzo[b]thiophene-2-carboxylic acid [4-ethoxy-4′-(2,2,2-trifluoro-acetyl)-biphenyl-3-ylmethyl]-(4-methylamino-cyclohexyl)-amide hydrochloride] | < 50
6 | < 50 | 50 to 250 | CN[C@H]1CC[C@@H](N(Cc2cc(-c3ccccc3)ccc2OC)C(=O)c2sc3ccccc3c2Cl)CC1 [Compound R3, 3-Chloro-benzo[b]thiophene-2-carboxylic acid (4-methoxy-biphenyl-3-ylmethyl)-(4-methylamino-cyclohexyl)-amide hydrochloride] | 50 to 250
7 | < 50 | < 50 | CCOc1ccc(-c2cccc(C#N)c2)cc1CN(C(=O)c1sc2ccccc2c1Cl)[C@H]1CC[C@@H](NC)CC1 [Compound 328, 3-Chloro-benzo[b]thiophene-2-carboxylic acid (3′-cyano-4-ethoxy-biphenyl-3-ylmethyl)-(4-methylamino-cyclohexyl)-amide hydrochloride] | 50 to 250
8 | < 50 | < 50 | CNC(=O)c1cc(-c2ccc(OC)c(CN(C(=O)c3sc4c(F)ccc(F)c4c3Cl)[C@H]3CC[C@@H](NC)CC3)c2)ccn1 [356 (R16)] | < 50
9 | < 50 | < 50 | CN[C@H]1CC[C@@H](N(Cc2cc(-c3cncnc3)ccc2OC)C(=O)c2sc3c(F)ccc(F)c3c2Cl)CC1 [343 (R15)] | < 50
10 | 250 to 1000 | – | CCOc1ccc(-c2cc(C)nc(C)c2)cc1CN(C(=O)c1sc2ccccc2c1Cl)[C@H]1CC[C@H](NC)CC1 [Compound 400, 3-Chloro-benzo[b]thiophene-2-carboxylic acid [5-(2,6-dimethyl-pyridin-4-yl)-2-ethoxy-benzyl]-(4-methylamino-cyclohexyl)-amide dihydrochloride] | 250 to 1000
11 | 250 to 1000 | – | CNc1ccc(-c2ccc(OC)c(CN(C(=O)c3sc4ccccc4c3Cl)[C@H]3CC[C@H](NC)CC3)c2)cn1 [Compound 397, 3-Chloro-benzo[b]thiophene-2-carboxylic acid [2-methoxy-5-(6-methylamino-pyridin-3-yl)-benzyl]-(4-methylamino-cyclohexyl)-amide dihydrochloride] | 250 to 1000
12 | < 50 | – | CN[C@H]1CC[C@@H](N(Cc2cc(-c3ccc(C)nc3)ccc2OC)C(=O)c2sc3ccccc3c2Cl)CC1 [Compound 320, 3-Chloro-benzo[b]thiophene-2-carboxylic acid [2-methoxy-5-(6-methyl-pyridin-3-yl)-benzyl]-(4-methylamino-cyclohexyl)-amide dihydrochloride] | < 50
13 | 1000 to 2500 | – | CCOc1ccc(-c2ccc(N(C)C)nc2)cc1CN(C(=O)c1sc2ccccc2c1Cl)[C@H]1CC[C@H](NC)CC1 [Compound 404, 3-Chloro-benzo[b]thiophene-2-carboxylic acid [5-(6-dimethylamino-pyridin-3-yl)-2-ethoxy-benzyl]-(4-methylamino-cyclohexyl)-amide bis(trifluoroacetate)] | 250 to 1000
14 | < 50 | – | CN[C@H]1CC[C@H](N(Cc2cc(-c3ccc(C)nc3)ccc2OC)C(=O)c2sc3cccc(F)c3c2Cl)CC1 [Compound 406, 3-Chloro-4-fluoro-benzo[b]thiophene-2-carboxylic acid [2-methoxy-5-(6-methyl-pyridin-3-yl)-benzyl]-(4-methylamino-cyclohexyl)-amide dihydrochloride] | 50 to 250
15 | < 50 | – | CN[C@H]1CC[C@@H](N(Cc2cc(-c3cc(C)nc(C)c3)ccc2OC)C(=O)c2sc3ccccc3c2Cl)CC1 [Compound R1, 3-Chloro-benzo[b]thiophene-2-carboxylic acid [5-(2,6-dimethyl-pyridin-4-yl)-2-methoxy-benzyl]-(4-methylamino-cyclohexyl)-amide dihydrochloride] | 50 to 250
16 | 50 to 250 | – | CCOc1ccc(-c2ccc(C)nc2)cc1CN(C(=O)c1sc2ccccc2c1Cl)[C@H]1CC[C@@H](NC)CC1 [Compound R4, 3-Chloro-benzo[b]thiophene-2-carboxylic acid [2-ethoxy-5-(6-methyl-pyridin-3-yl)-benzyl]-(4-methylamino-cyclohexyl)-amide dihydrochloride] | 50 to 250
17 | < 50 | – | CN[C@H]1CC[C@@H](N(Cc2cc(-c3ccnc(C)c3)ccc2OC)C(=O)c2sc3ccccc3c2Cl)CC1 [331 (R11)] | < 50
18 | 250 to 1000 | – | CCOc1ccc(-c2ccc(N)nc2)cc1CN(C(=O)c1sc2ccccc2c1Cl)[C@H]1CC[C@H](NC)CC1 [Compound 396, 3-Chloro-benzo[b]thiophene-2-carboxylic acid [2-ethoxy-5-(6-amino-pyridin-3-yl)-benzyl]-(4-methylamino-cyclohexyl)-amide dihydrochloride] | 50 to 250
19 | < 50 | – | CN[C@H]1CC[C@@H](N(Cc2cc(-c3ccc(C(N)=O)cc3)ccc2OC)C(=O)c2sc3c(F)ccc(F)c3c2Cl)CC1 [Compound R8, 3-Chloro-4,7-difluoro-benzo[b]thiophene-2-carboxylic acid (4′-carbamoyl-4-methoxy-biphenyl-3-ylmethyl)-(4-methylamino-cyclohexyl)-amide hydrochloride] | < 50
20 | < 50 | – | CCOc1ccc(-c2ccc(C(=O)C(F)(F)F)cc2)cc1CN(C(=O)c1sc2c(F)ccc(F)c2c1Cl)[C@H]1CC[C@@H](NC)CC1 [Compound 341, 3-Chloro-4,7-difluoro-benzo[b]thiophene-2-carboxylic acid [4-ethoxy-4′-(2,2,2-trifluoro-acetyl)-biphenyl-3-ylmethyl]-(4-methylamino-cyclohexyl)-amide trifluoroacetate] | 50 to 250
21 | < 50 | – | CN[C@H]1CC[C@@H](N(Cc2cc(-c3cccc(C(C)=O)c3)ccc2OC)C(=O)c2sc3c(F)ccc(F)c3c2Cl)CC1 [Compound 364, 3-Chloro-4,7-difluoro-benzo[b]thiophene-2-carboxylic acid (3′-acetyl-4-methoxy-biphenyl-3-ylmethyl)-(4-methylamino-cyclohexyl)-amide hydrochloride] | < 50
22 | 1000 to 2500 | – | CN[C@H]1CC[C@H](N(Cc2cc(-c3ccc(N(C)C)nc3)ccc2OC)C(=O)c2sc3ccccc3c2Cl)CC1 [Compound 405, 3-Chloro-benzo[b]thiophene-2-carboxylic acid [5-(6-dimethylamino-pyridin-3-yl)-2-methoxy-benzyl]-(4-methylamino-cyclohexyl)-amide bis(trifluoroacetate)] | 250 to 1000
23 | 50 to 250 | – | CCOc1ccc(-c2ccc(C#N)cc2)cc1CN(C(=O)c1sc2ccccc2c1Cl)[C@H]1CC[C@@H](NC)CC1 [Compound R2, 3-Chloro-benzo[b]thiophene-2-carboxylic acid (4′-cyano-4-ethoxy-biphenyl-3-ylmethyl)-(4-methylamino-cyclohexyl)-amide hydrochloride] | 50 to 250

Row | SMILES | EC50 [1] [nM] | EC50 [3] [nM] | EC50 [2] [nM]
24 | CN[C@H]1CC[C@@H](N(Cc2cc(-c3cccc(C#N)c3)ccc2OC)C(=O)c2sc3c(F)ccc(F)c3c2Cl)CC1 [Compound 337, 3-Chloro-4,7-difluoro-benzo[b]thiophene-2-carboxylic acid (3′-cyano-4-methoxy-biphenyl-3-ylmethyl)-(4-methylamino-cyclohexyl)-amide hydrochloride] | < 50 | – | < 50
25 | CN[C@H]1CC[C@@H](N(Cc2cc(-c3ccc(C#N)cc3)ccc2OC)C(=O)c2sc3c(F)ccc(F)c3c2Cl)CC1 [Compound 351, 3-Chloro-4,7-difluoro-benzo[b]thiophene-2-carboxylic acid (4′-cyano-4-methoxy-biphenyl-3-ylmethyl)-(4-methylamino-cyclohexyl)-amide hydrochloride] | < 50 | – | < 50
